Test results: patent publication US20260125371A1, “METHOD FOR INHIBITING CLOSTRIDIOIDES DIFFICILE SPORE GERMINATION” (UNIVERSITY OF NOTRE DAME DU LAC, priority 2022, published 2026)
In brackets after ≈: the same amount, converted by molar mass. Like-named read-outs stand apart in the source and are kept apart here.

Experiments:
[1] = tested on: Clostridioides difficile infection; conditions: CDI patients; cited from earlier work
[2] = tested on: C. difficile ATCC 43255; assay: Time-kill assay; type: cell-based, Clostridioides difficile; conditions: 8× MIC
[3] = tested on: C. difficile strains; conditions: cited from earlier work
[4] = tested on: Lactobacillus gasseri HM-644; conditions: cited from earlier work
[5] = tested on: K. pneumoniae ATCC700603; assay: MIC against K. pneumoniae; type: cell-based; conditions: Klebsiella pneumoniae; K. pneumoniae ATCC700603; read-out: MIC
[6] = tested on: C. difficile ATCC 43255 vegetative cells; assay: Mode of action by scanning electron microscopy (SEM); conditions: 8× MIC for 24 h

Cc1ncc([N+](=O)[O-])n1CCO [MTZ, metronidazole]
recurrence of infection [1]: 27%
reduction in bacterial growth (time-kill) [2]: 4 log 10
IMIC50 (101 strains) ([3]; 101 C. difficile strains): 0.5 µg/mL
MIC ([3]; C. difficile 23828, resistant to FDX): 0.5 µg/mL (≈ 2.92 µM)
MIC ([3]; C. difficile 24531, resistant to VAN): 0.5 µg/mL (≈ 2.92 µM)
MIC ([3]; C. difficile 26675, resistant to MTZ): 4 µg/mL (≈ 23.4 µM)
MIC ([3]; C. difficile BAA-1803): 0.5 µg/mL (≈ 2.92 µM)
MIC ([3]; C. difficile BAA-1870): 0.5 µg/mL (≈ 2.92 µM)
MIC50 ([3]; C. difficile strains of Table 4): 0.5 µg/mL (≈ 2.92 µM)
MIC ([3]; strain BAA-1803): 0.5 µg/mL (≈ 2.92 µM)
MIC ([3]; strain BAA-1870): 0.5 µg/mL (≈ 2.92 µM)
MIC ([3]; strain HM-745): 0.5 µg/mL (≈ 2.92 µM)
MIC ([3]; strain HM-747): 0.5 µg/mL (≈ 2.92 µM)
MIC ([3]; strain NR-13430): 0.5 µg/mL (≈ 2.92 µM)
MIC ([3]; strain NR-13431): 0.5 µg/mL (≈ 2.92 µM)
MIC ([3]; strain NR-13433): 0.5 µg/mL (≈ 2.92 µM)
MIC ([3]; strain NR-13434): 0.5 µg/mL (≈ 2.92 µM)
MIC ([3]; strain NR-13435): 0.5 µg/mL (≈ 2.92 µM)
MIC ([3]; strain NR-13436): 0.5 µg/mL (≈ 2.92 µM)
MIC ([3]; strain NR-13437): 0.5 µg/mL (≈ 2.92 µM)
MIC ([3]; strain NR-13438): 0.5 µg/mL (≈ 2.92 µM)
MIC ([3]; strain NR-13553): 0.5 µg/mL (≈ 2.92 µM)
MIC ([3]; strain NR-32883): 0.5 µg/mL (≈ 2.92 µM)
MIC ([3]; strain NR-32884): 0.5 µg/mL (≈ 2.92 µM)
MIC ([3]; strain NR-32885): 0.5 µg/mL (≈ 2.92 µM)
MIC ([3]; strain NR-32886): 0.5 µg/mL (≈ 2.92 µM)
MIC ([3]; strain NR-32888): 0.5 µg/mL (≈ 2.92 µM)
MIC ([3]; strain NR-32890): 0.5 µg/mL (≈ 2.92 µM)
MIC ([3]; strain NR-32892): 0.5 µg/mL (≈ 2.92 µM)
MIC ([3]; strain NR-32897): 0.5 µg/mL (≈ 2.92 µM)
MIC ([3]; strain NR-32903): 0.5 µg/mL (≈ 2.92 µM)
MIC ([3]; strain NR-32904): 0.5 µg/mL (≈ 2.92 µM)
MIC ([3]; strain NR-49277): 0.5 µg/mL (≈ 2.92 µM)
MIC ([3]; strain NR-49278): 0.5 µg/mL (≈ 2.92 µM)
MIC ([3]; strain NR-49282): 0.5 µg/mL (≈ 2.92 µM)
MIC ([3]; strain NR-49283): 0.5 µg/mL (≈ 2.92 µM)
MIC ([3]; strain NR-49284): 0.5 µg/mL (≈ 2.92 µM)
MIC ([3]; strain NR-49285): 0.5 µg/mL (≈ 2.92 µM)
MIC ([3]; strain NR-49287): 0.5 µg/mL (≈ 2.92 µM)
MIC ([3]; strain NR-49288): 0.5 µg/mL (≈ 2.92 µM)
MIC ([3]; strain NR-49289): 0.5 µg/mL (≈ 2.92 µM)
MIC ([3]; strain NR-49293): 0.5 µg/mL (≈ 2.92 µM)
MIC ([3]; strain NR-49295): 0.5 µg/mL (≈ 2.92 µM)
MIC ([3]; strain NR-49296): 0.5 µg/mL (≈ 2.92 µM)
MIC ([3]; strain NR-49297): 0.5 µg/mL (≈ 2.92 µM)
MIC ([3]; strain NR-49299): 0.5 µg/mL (≈ 2.92 µM)
MIC ([3]; strain NR-49300): 0.5 µg/mL (≈ 2.92 µM)
MIC ([3]; strain NR-49301): 0.5 µg/mL (≈ 2.92 µM)
MIC ([3]; strain NR-49303): 0.5 µg/mL (≈ 2.92 µM)
MIC ([3]; strain NR-49304): 0.5 µg/mL (≈ 2.92 µM)
MIC ([3]; strain NR-49306): 0.5 µg/mL (≈ 2.92 µM)
MIC ([3]; strain NR-49307): 0.5 µg/mL (≈ 2.92 µM)
MIC ([3]; strain NR-49308): 0.5 µg/mL (≈ 2.92 µM)
MIC ([3]; strain NR-49311): 0.5 µg/mL (≈ 2.92 µM)
MIC ([3]; strain NR-49312): 0.5 µg/mL (≈ 2.92 µM)
MIC ([3]; strain NR-49313): 0.5 µg/mL (≈ 2.92 µM)
MIC ([3]; strain NR-49314): 0.5 µg/mL (≈ 2.92 µM)
MIC ([3]; strain NR-49315): 0.5 µg/mL (≈ 2.92 µM)
MIC ([3]; strain NR-49316): 0.5 µg/mL (≈ 2.92 µM)
MIC ([3]; strain NR-49317): 0.5 µg/mL (≈ 2.92 µM)
MIC ([3]; strain NR-49319): 0.5 µg/mL (≈ 2.92 µM)
MIC ([3]; strain NR-49320): 0.5 µg/mL (≈ 2.92 µM)
MIC ([3]; strain NR-49321): 0.5 µg/mL (≈ 2.92 µM)
MIC ([3]; strain NR-49325): 0.5 µg/mL (≈ 2.92 µM)
MIC ([3]; strain NR-49326): 0.5 µg/mL (≈ 2.92 µM)
MIC ([3]; strain NR-49327): 0.5 µg/mL (≈ 2.92 µM)
MIC ([3]; strain RMA23691): 0.5 µg/mL (≈ 2.92 µM)
MIC ([3]; strain RMA23828): 0.5 µg/mL (≈ 2.92 µM)
MIC ([3]; strain RMA24531): 0.5 µg/mL (≈ 2.92 µM)
MIC ([3]; strain RMA26675): 4 µg/mL (≈ 23.4 µM)
MIC ([3]; strain RMA27081): 0.5 µg/mL (≈ 2.92 µM)
MIC ([3]; strain RMA27173): 4 µg/mL (≈ 23.4 µM)
MIC [4]: >32 µg/mL
MIC [5]: > 128 µg/mL
effect on vegetative cells by SEM [6]: No obvious effect
